Reference: patent US9783510B2, “Small molecule mediated transcriptional induction of E-cadherin” (Vanderbilt University, priority 2014, dated 2017)

System: E-cadherin expression in SW620inv colon cancer cells
Assay: Quantitative in-cell Western (ICW), E-cadherin restoration in SW620inv cells
Assay type: cell-based
Details: 24 hours, 3 biological replicates
Description: SW620inv cells were used for ICW analysis as described (Stoops, S. L., et al. (2011) ACS Chemical Biology 6, 452-465).
SW620 cells (ATCC p92) were grown in RPMI+10% FBS+P/S to sub-confluence. The cells were washed with PBS, trypsinized, and re-suspended in serum-free RPMI at a concentration of one million cells/mL. The cells were then added to the upper chamber of 24 mm transwell (Costar#3428) that had been coated with 400 μL of 2.5 mg/mL matrigel (BD Biosciences). One milliliter of 10% FBS+P/S was added to the lower chamber. The cells were incubated at 37° C. for 72 hours in order to allow the cells to invade. Four biological replicate transwells were prepared for invasion. […] These invasive cells were then analyzed by western blot, matrigel invasion assay, and immunofluorescence for E-cadherin levels with and without TSA treatments. […]
Compounds of the present invention restore E-cadherin protein to the surface of selected aggressive colon and lung cancer cells. […] The kinetics of altered E-cadherin expression in SW620inv cells was determined by quantitative Western blot, using the Odyssey imaging system. […]
Referring to FIG. 2B and FIG. 2C, concentration dependent changes in E-cadherin expression following 24 hours of Compound 13 (259Y) treatment as determined by quantitative in cell Western (ICW) are shown.

Which EC50 does the source give for `O=C(NCCCNC(=O)c1cccnc1O)c1cc(-c2ccccc2)on1` [Compound 13, N-(3-(2-hydroxynicotinamido)propyl)-5-phenylisoxazole-3-carboxamide] here?
The EC50 was 2220 nM.
